Values quoted from earlier work as cited in patent publication US20040019101A1, “Methods of treating gastrointestinary and genitourinary pain disorders” (priority 2002, published 2004).

Columns and labels:
[1] = tested on: monoamine neurotransmitter uptake
orocecal transit = details: healthy subjects or IBS patients
irritable bowel syndrome = details: in vivo
dopamine reuptake = details: compared with serotonin and norepinephrine uptake
adrenergic receptors = details: in vitro
histaminergic receptors = details: in vitro

CN(C)CC(c1ccc(O)cc1)C1(O)CCCCC1 (centres unmarked) [O-desmethyl venlafaxine, 1-[(2-dimethylamino)-1-(4-hydoxyphenyl)ethyl]cyclohexanol]
inhibition of monoamine neurotransmitter uptake [1]: potent inhibitors

CN(C)CCCN1c2ccccc2CCc2ccccc21 [imipramine]
effect on orocecal transit (orocecal transit): prolong orocecal transit | efficacy in treatment of irritable bowel syndrome (irritable bowel syndrome): efficacious

COc1ccc(C(CN(C)C)C2(O)CCCCC2)cc1 (centres unmarked) [venlafaxine, 1-[2-(dimethylamino)-1-(4-methoxyphenyl)ethyl] cyclohexanol]
inhibition of dopamine reuptake (dopamine reuptake): To a lesser degree | affinity for adrenergic receptors (adrenergic receptors): virtually no affinity | inhibitory activity on monoamine oxidase (monoamine oxidase): no inhibitory activity | affinity for histaminergic receptors (histaminergic receptors): virtually no affinity | inhibition of norepinephrine uptake (norepinephrine uptake): potent inhibition | inhibition of monoamine neurotransmitter uptake [1]: potent inhibitors

CN(C)CCC=C1c2ccccc2COc2ccccc21 [doxepin]
efficacy in treatment of irritable bowel syndrome (irritable bowel syndrome): efficacious

CN(C)CCC=C1c2ccccc2CCc2ccccc21 [amytriptiline]
efficacy in treatment of irritable bowel syndrome (irritable bowel syndrome): efficacious
